{
  "source": "patent US11433096B2",
  "about": "“Ophthalmic formulation and methods of use” (priority 2020, dated 2022)",
  "origin": "cited, not measured here",
  "key": {"opacities": {"tested_on": "opacities", "conditions": "in vivo"}, "[1]": {"tested_on": "diabetes-induced cataract", "conditions": "diabetic rats"}},
  "data": [
    {"compound": "O=S(=O)([O-])[O-].[Zn+2]", "note": "[Zinc Sulfate]", "values": [
      {"measurement": "opacities progression and opacity score", "setting": "opacities", "result": "retard opacities progression and lowering the opacity score"}
    ]},
    {"compound": "[Zn]", "note": "[zinc]", "values": [
      {"measurement": "cross-linked glycation, expression of the receptor of glycated products and oxidative stress indicators in the eye lens", "setting": "[1]; supplemental zinc", "result": "alleviated"},
      {"measurement": "progression and maturation of diabetes-induced cataract", "setting": "[1]; supplemental zinc", "result": "alleviated"},
      {"measurement": "reduced content of total and imbalanced proportion of soluble proteins in the lens", "setting": "[1]; supplemental zinc", "result": "effective in preventing"},
      {"measurement": "concentration of heat shock protein in the eye lens, specifically α-crystallin", "setting": "[1]; zinc supplementation", "result": "induced"},
      {"measurement": "elevated activity and expression of polyol pathway enzymes and molecules in the lens", "setting": "[1]; zinc supplementation", "result": "counteracted"}
    ]}
  ]
}
